Legend:
[1] = test system: host (mouse) alpha smooth muscle actin (αSMact); experiment: qPCR of explanted capsules, host fibrosis marker; assay type: in vivo; conditions: explanted at approximately 430 (amorphous) or 460 (crystalline) days post-transplant
Excerpt: Total RNA was isolated from fibrosed spheres (with adhered tissue and immune overgrowth, if present), liquid nitrogen snap-frozen immediately following excision, using TRIzol (Invitrogen, Carlsbad, Calif.) according to the manufacturer's instructions. In addition, to help ensure complete tissue disruption, we also employed strong mechanical disruption with a Polytron homogenizer. Thus, gene expression signatures shown throughout are proportional and representative of the entire cell population present on and/or around retrieved materials. […] Mouse (5′-[…]-3′ (SEQ. ID. No.:1); reverse: 5′-CGGGTTCCGCTGTGTAAG-3′ (SEQ. ID. No.:2)) and rat (5′-CTCTCGTGCCATGTGAACC-3′ (SEQ. ID. No.:3); reverse: 5′-[…]-3′ (SEQ. ID. No.:4)) Pdx1 primers were designed using Primer Express software (Applied Biosystems, Carlsbad, Calif., USA) and evaluated using LaserGene software (DNAStar, Madison, Wis., USA) to ensure species rat (encapsulated islet) or mouse (host)-specificity, and normalized to mouse (5′-[…]-3′ (SEQ. ID. No.:5); reverse: 5′-[…]-3′ (SEQ. ID. No.:6)) and rat (5′-[…]-3′ (SEQ. ID. No.:7); reverse: 5′-[…]-3′ (SEQ. ID. No.:8)) Beta-actin, respectively. […] Results were analyzed using the comparative CT (ΔΔCT) method as described by the manufacturer. […]

C57BL/6 mice = experiment: Naked (non-encapsulated) drug crystals injected IP with 500 μm alginate spheres, 2 weeks; assay type: in vivo
Method: Naked crystals of GW2580 or saline-only (no drug control) were delivered intraperitoneally along with 500 μm alginate spheres for 2 weeks to C57BL/6 mice. […] Brightfield and fluorescence imaging was used to emphasize the respective presence or lack of fibrotic overgrowth on retrieved alginate spheres from either saline (control) or crystalline GW2580 treatment groups (FIG. 17C). […] GW2580 crystal testing (at doses of 0.5 and 5 mg/SC site) was also extended into the SC implant space with other immunogenic materials, ceramic glass (GL) and polymer polystyrene (PS). […] All animal protocols were approved by the MIT Committee on Animal Care, and all surgical procedures and post-operative care was supervised by MIT Division of Comparative Medicine veterinary staff. Immune-competent male non-diabetic or STZ-induced diabetic C57BL/6 mice (Jackson Laboratory, Bar Harbor, Me.) were anesthetized with 3% isoflurane in oxygen and had their abdomens shaved and sterilized using betadine and isopropanol. Preoperatively, all mice also received a 0.05 mg/kg dose of buprenorphine subcutaneously as a pre-surgical analgesic, along with 0.3 mL of 0.9% saline subcutaneously to prevent dehydration. A […] incision was made along the midline of the abdomen and the peritoneal lining was exposed using blunt dissection. The peritoneal wall was then grasped with forceps and a 0.5-1 mm incision was made along the linea alba. A desired volume of spheres (all materials without islets, as well as SLG20 spheres encapsulating rat islets) were then loaded into a sterile pipette and implanted into the peritoneal cavity through the incision. The incision was then closed using 5-0 taper-tipped polydioxanone (PDS II) absorbable sutures. The skin was then closed over the incision using a wound clip and tissue glue. At desired time points post-implantation or transplantation (with encapsulated islets), as specified in figures, mice were euthanized by CO2 administration, followed by cervical dislocation. In certain instances, 5 ml of ice cold PBS was first injected in order perform an intraperitoneal lavage to rinse out and collect free-floating intraperitoneal immune cells. An incision was then made using the forceps and scissors along the abdomen skin and peritoneal wall, and intraperitoneal lavage volumes were pipetted out into fresh 15 ml falcon tubes (each prepared with 5 ml of RPMI cell culture media). Next, a wash bottle tip was inserted into the abdominal cavity. KREBS buffer was then used to wash out all material spheres from the abdomen and into petri dishes for collection. After ensuring all the spheres were washed out or manually retrieved (if fibrosed directly to intraperitoneal tissues), they were transferred into 50 mL conical tubes for downstream processing and imaging. After intraperitoneal lavage and sphere retrieval, remaining fibrosed intraperitoneal tissues were also excised for downstream FACS and expression analyses. Single-cell suspensions of freshly excised tissues were prepared using a gentle MACS Dissociator (Miltenyi Biotec, Auburn, Calif.) according to the manufacturer's protocol. Single-cell suspensions were prepared in a passive PEB dissociation buffer (1×PBS, pH 7.2, 0.5% BSA, and 2 mM EDTA) and suspensions were passed through 70 μm filters (Cat. #22363548, Fisher Scientific, Pittsburgh, Pa.). This process removed the majority of cells adhered to the surface (>90%). […]

COc1ccc(COc2ccc(Cc3cnc(N)nc3N)cc2OC)cc1 [GW2580, 5-[[3-Methoxy-4-[(4-methoxyphenyl)methoxy]phenyl]methyl]-2,4-pyrimidinediamine]
lower αSMact expression, crystal versus amorphous capsules [1]: 74%
crystals in IP lavage liquid (differential interference contrast imaging) (C57BL/6 mice; 2 weeks after implantation, 1 week since last crystal injection): many crystals remained within the IP space
fibrosis of retrieved alginate microspheres (phase contrast) (C57BL/6 mice; daily amorphous drug, 3 mg/day, total 45 mg over 2 weeks): fibrosis-free
macrophage levels on microspheres (FACS) (C57BL/6 mice; naked crystals, 2 weeks): significant reductions in macrophage levels
fibrosis of retrieved alginate microspheres (phase contrast) (C57BL/6 mice; naked drug crystals, 4.5 mg once per week, 9 mg total): fibrosis-free
fibrosis of retrieved alginate microspheres (phase contrast) (C57BL/6 mice; weekly amorphous drug): not effective
